Reference: ChEMBL document CHEMBL2176885, “Structural basis for the potent and selective inhibition of casein kinase 1 epsilon” (J Med Chem, 2012)
Positions count from the first letter of the chain named.

Experiments:
[1] = test system: T1, Casein kinase I isoform epsilon (Homo sapiens), P49674 [F55I]; test: Binding affinity to human CK1epsilon F55I mutant assessed as change in melting temperature by differential scanning fluorimetry
T1 sequence (whole entry): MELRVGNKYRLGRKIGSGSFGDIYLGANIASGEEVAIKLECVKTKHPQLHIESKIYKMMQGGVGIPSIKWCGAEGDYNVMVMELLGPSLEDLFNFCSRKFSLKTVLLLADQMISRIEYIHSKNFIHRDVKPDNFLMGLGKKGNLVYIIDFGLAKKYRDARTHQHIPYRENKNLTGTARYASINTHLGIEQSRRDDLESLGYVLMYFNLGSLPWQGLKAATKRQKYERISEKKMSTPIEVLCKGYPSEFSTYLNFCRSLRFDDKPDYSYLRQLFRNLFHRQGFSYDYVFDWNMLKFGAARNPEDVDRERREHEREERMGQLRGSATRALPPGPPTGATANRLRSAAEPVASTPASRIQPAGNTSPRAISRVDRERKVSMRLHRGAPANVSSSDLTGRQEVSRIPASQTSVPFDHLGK

[2] = test system: T2, Casein kinase I isoform delta (Homo sapiens), P48730 [R69K]; test: Binding affinity to human CK1delta R69K mutant assessed as change in melting temperature by differential scanning fluorimetry
T2 sequence (whole entry): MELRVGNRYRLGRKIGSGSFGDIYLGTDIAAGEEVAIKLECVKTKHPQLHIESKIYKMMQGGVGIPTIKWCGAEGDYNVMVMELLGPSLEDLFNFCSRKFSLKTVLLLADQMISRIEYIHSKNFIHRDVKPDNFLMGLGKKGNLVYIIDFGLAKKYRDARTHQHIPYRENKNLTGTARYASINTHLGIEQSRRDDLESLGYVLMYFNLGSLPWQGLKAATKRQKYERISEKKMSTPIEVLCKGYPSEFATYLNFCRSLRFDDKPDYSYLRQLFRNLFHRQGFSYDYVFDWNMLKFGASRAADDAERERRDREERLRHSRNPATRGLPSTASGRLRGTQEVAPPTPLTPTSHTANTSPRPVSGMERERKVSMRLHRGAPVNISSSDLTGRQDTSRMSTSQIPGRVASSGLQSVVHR

[3] = test system: T3, Casein kinase I isoform epsilon (Homo sapiens), P49674 [S67T]; test: Binding affinity to human CK1epsilon S67T mutant assessed as change in melting temperature by differential scanning fluorimetry
T3 sequence (whole entry): T1 sequence (whole entry) with I55F, S67T

[4] = target: Casein kinase I isoform delta (Homo sapiens) (UniProt P48730); test: Binding affinity to wild type human CK1delta (1-294 amino acids) assessed as change in melting temperature by differential scanning fluorimetry
[5] = test system: T4, Casein kinase I isoform epsilon (Homo sapiens), P49674 [K69R]; test: Binding affinity to human CK1epsilon K69R mutant assessed as change in melting temperature by differential scanning fluorimetry
T4 sequence (whole entry): T1 sequence (whole entry) with I55F, K69R

[6] = target: Casein kinase I isoform epsilon (Homo sapiens) (UniProt P49674); test: Binding affinity to wild type human CK1epsilon (1-294 amino acids) assessed as change in melting temperature by differential scanning fluorimetry
[7] = test system: T5, Casein kinase I isoform delta (Homo sapiens), P48730 [T67S]; test: Binding affinity to human CK1delta T67S mutant assessed as change in melting temperature by differential scanning fluorimetry
T5 sequence (whole entry): T2 sequence (whole entry) with T67S, K69R

[8] = test system: T6, Casein kinase I isoform delta (Homo sapiens), P48730 [I55F]; test: Binding affinity to human CK1delta I55F mutant assessed as change in melting temperature by differential scanning fluorimetry
T6 sequence (whole entry): T2 sequence (whole entry) with I55F, K69R

Sequence of Casein kinase I isoform delta (Homo sapiens) (P48730 whole entry, looked up, the tested form may be a part, canonical isoform): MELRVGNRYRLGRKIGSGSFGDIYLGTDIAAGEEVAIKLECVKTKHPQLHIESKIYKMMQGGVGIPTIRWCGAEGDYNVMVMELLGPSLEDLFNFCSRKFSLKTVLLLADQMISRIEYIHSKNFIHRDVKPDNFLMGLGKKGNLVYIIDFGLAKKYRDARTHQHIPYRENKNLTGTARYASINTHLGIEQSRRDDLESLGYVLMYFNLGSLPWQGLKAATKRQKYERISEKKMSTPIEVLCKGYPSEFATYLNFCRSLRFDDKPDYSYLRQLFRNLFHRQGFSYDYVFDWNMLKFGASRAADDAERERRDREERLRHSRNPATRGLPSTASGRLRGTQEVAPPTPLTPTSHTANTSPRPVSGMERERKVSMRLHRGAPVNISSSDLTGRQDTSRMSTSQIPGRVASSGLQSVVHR
Sequence of Casein kinase I isoform epsilon (Homo sapiens) (P49674 whole entry, looked up, the tested form may be a part, canonical isoform): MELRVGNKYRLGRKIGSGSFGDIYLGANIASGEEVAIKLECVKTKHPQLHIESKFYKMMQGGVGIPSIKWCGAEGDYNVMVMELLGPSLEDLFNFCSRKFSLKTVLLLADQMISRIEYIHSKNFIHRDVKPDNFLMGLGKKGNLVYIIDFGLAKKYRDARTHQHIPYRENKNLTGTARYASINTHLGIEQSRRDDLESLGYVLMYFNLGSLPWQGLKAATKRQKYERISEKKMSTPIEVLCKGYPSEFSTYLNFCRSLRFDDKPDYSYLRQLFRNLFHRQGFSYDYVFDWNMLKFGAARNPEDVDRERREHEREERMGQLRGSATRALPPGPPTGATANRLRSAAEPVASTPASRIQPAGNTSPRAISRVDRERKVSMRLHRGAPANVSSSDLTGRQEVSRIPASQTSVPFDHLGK

Row | ΔTm [1] | ΔTm [2] | ΔTm [3] | ΔTm [4] | ΔTm [5] | ΔTm [6] | ΔTm [7] | ΔTm [8] | SMILES
1 | 10.4 °C | 9.6 °C | 8.6 °C | 9.6 °C | 8.6 °C | 8.6 °C | 9.6 °C | 9.6 °C | Nc1nccc(-c2c(-c3ccc(F)cc3)ncn2C2CCCCC2)n1
2 | 6.4 °C | 4.8 °C | 11.5 °C | 4.8 °C | 11.5 °C | 11.5 °C | 4.8 °C | 13.2 °C | Nc1ncnc2c1c(COc1cccc(Cl)c1)nn2C1CCOCC1
